This note sets out measurements from US10071095B2, “1,2,4-triazolo [4,3-A] pyridine derivatives and their use for the treatment of neurological and psychiatric disorders” (JANSSEN PHARMACEUTICALS, INC., priority 2009, dated 2018).

The target in this assay is T1, human mGluR2 receptor (Homo sapiens, UniProt Q14416).
T1 construct: expressed in transfected cells; host or cells: CHO cells
T1 sequence (Q14416 19-872): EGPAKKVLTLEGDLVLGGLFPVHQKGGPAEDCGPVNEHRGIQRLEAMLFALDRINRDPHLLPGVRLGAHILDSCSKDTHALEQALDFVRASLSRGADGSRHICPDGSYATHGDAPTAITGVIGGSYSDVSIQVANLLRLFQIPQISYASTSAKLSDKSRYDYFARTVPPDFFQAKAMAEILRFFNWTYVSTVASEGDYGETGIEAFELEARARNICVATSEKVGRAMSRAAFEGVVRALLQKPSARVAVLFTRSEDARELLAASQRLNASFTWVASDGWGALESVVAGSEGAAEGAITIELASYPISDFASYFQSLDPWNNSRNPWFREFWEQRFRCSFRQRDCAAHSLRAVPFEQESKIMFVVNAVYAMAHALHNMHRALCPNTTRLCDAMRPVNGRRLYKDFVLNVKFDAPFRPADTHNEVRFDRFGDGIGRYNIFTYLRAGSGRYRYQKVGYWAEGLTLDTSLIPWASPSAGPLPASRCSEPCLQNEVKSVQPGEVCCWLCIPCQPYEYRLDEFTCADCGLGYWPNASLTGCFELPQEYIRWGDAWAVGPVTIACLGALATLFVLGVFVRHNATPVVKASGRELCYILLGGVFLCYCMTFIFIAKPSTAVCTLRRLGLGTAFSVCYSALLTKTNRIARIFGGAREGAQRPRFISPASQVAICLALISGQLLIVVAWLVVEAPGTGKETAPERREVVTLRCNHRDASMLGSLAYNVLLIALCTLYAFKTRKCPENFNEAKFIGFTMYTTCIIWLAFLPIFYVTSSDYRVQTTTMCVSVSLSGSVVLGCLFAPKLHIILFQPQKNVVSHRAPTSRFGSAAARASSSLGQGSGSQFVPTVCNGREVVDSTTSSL
In words: [35S]GTPγS binding assay, positive allosteric modulation (GTPγS-PAM) in presence of EC20 glutamate. Type of assay: biochemical. To be noted: in presence of glutamate at EC20; average pEC50 if more experiments; ‡ means tested once. Here is the method: [^35S]GTPγS Binding Assay
The [^35S]GTPγS binding assay is a functional membrane-based assay used to study G-protein coupled receptor (GPCR) function whereby incorporation of a non-hydrolysable form of GTP, [^35S]GTPγS (guanosine 5′-triphosphate, labelled with […] ^35S), is measured. The G-protein α subunit catalyzes the exchange of guanosine 5′-diphosphate (GDP) by guanosine triphosphate (GTP) and on activation of the GPCR by an agonist, [^35S]GTPγS, becomes incorporated and cannot be cleaved to continue the exchange cycle (Harper (1998) Current Protocols in Pharmacology 2.6.1-10, John Wiley & Sons, Inc.). […] Here we describe the use of the [^35S]GTPγS binding assay using membranes from cells transfected with the human mGluR2 receptor and adapted from Schaffhauser et al. ((2003) Molecular Pharmacology 4:798-810) for the detection of the positive allosteric modulation (PAM) properties of the compounds of this invention.
CHO-cells were cultured to pre-confluence and stimulated with 5 mM butyrate for 24 h, prior to washing in PBS, and then collected by scraping in homogenisation buffer (50 mM Tris-HCl buffer, pH 7.4, 4° C.). Cell lysates were homogenized briefly using an ultra-turrax homogenizer. The homogenate was centrifuged at 16,000 RPM (Sorvall RC-5C plus rotor SS-34) for 10 minutes and the supernatant discarded. The pellet was resuspended in 5 mM Tris-HCl, pH 7.4 and centrifuged again (18,000 RPM, 20 min, 4° C.). The final pellet was resuspended in 50 mM Tris-HCl, pH 7.4 and stored at −80° C. in appropriate aliquots before use. Protein concentration was determined by the Bradford method (Bio-Rad, USA) with bovine serum albumin as standard.
Measurement of mGluR2 positive allosteric modulatory activity of test compounds was performed as follows. Test compounds and glutamate were diluted in assay buffer containing 10 mM HEPES acid, 10 mM HEPES salt, pH 7.4, 100 mM NaCl, 3 mM MgCl2 and 10 μM GDP. Human mGlu2 receptor-containing membranes were thawed on ice and diluted in assay buffer supplemented with 14 μg/ml saponin. Membranes were pre-incubated with compound alone or together with a predefined (˜EC20) concentration of glutamate (PAM assay) for 30 min at 30° C. After addition of [^35S]GTPγS (f.c. 0.1 nM) microplates were shaken briefly and further incubated to allow [^35S]GTPγS incorporation on activation (30 minutes, 30° C.). Final assay mixtures contained 7 μg of membrane protein in 10 mM HEPES acid, 10 mM HEPES salt, pH 7.4, 100 mM NaCl, 3 mM MgCl2, 10 µM GDP and 10 μg/ml saponin. Total reaction volume was 200 μl. Reactions were terminated by rapid filtration through Unifilter-96 GF/B filter plates (Packard, Meriden, Conn.) using a 96-well Packard filtermate harvester. Filters were washed 6 times with ice-cold 10 mM NaH2PO4/10 mM Na2HPO4, pH 7.4. Filters were then air-dried, and 40 μl of liquid scintillation cocktail (Microscint-O) was added to each well. Membrane-bound radioactivity was counted in a Microplate Scintillation and Luminescence Counter from Packard.
The concentration-response curves of representative compounds of the present invention-obtained in the presence of EC20 of mGluR2 agonist glutamate to determine positive allosteric modulation (PAM)—were generated using the Lexis software interface (developed at J&J).
For orientation: Binding of GTPγS marks nucleotide exchange on a G protein.
On to `O=C1N(c2ccc(F)cc2F)CC12CCN(c1ccn3c(CC4CC4)nnc3c1Cl)CC2` [compound 213], for which the “GTPγS - hR2 PAM pEC50” value is given as 6.03‡. Under `CC(C)Cc1nnc2c(C#N)c(N3CCC(c4ccccc4)CC3)ccn12` [compound 74] stands 6.85; under `N#Cc1c(N2CCC(c3ccccc3)CC2)ccn2c(-c3ccccc3)nnc12` [compound 205], 6.61‡. For `FC(F)(F)c1cccc(C2CCN(c3ccn4c(CC5CC5)nnc4c3Cl)CC2)c1` [compound 39], the “GTPγS - hR2 PAM pEC50” value is 7.52. Under `FC(F)(F)c1c(N2Cc3ccccc3C2)ccn2c(CC3CC3)nnc12` [compound 130] stands 6.4; under `Fc1cc(F)cc(CN2CCN(c3ccn4c(CC5CC5)nnc4c3Cl)CC2)c1` [compound 179], 5.79‡; under `CCCCc1nnc2c(C(F)(F)F)c(N3CCC(c4ccccc4)CC3)ccn12` [compound 4, 3-Butyl-7-(4-phenyl-1-piperidinyl)-8-trifluoromethyl-1,2,4-triazolo[4,3-a]pyridine], 7.62.

As for `CC(C)OCc1nnc2c(C(F)(F)F)c(N3CCC(Oc4ccccn4)CC3)ccn12` [compound 150], the “GTPγS - hR2 PAM pEC50” value is listed as 6.97‡. Under `CC1(C)CN(c2ccn3c(CC4CC4)nnc3c2Cl)CCN1c1ccccc1` [compound 105] stands 6.17‡; under `N#Cc1c(N2CCC(F)(c3ccccc3)CC2)ccn2c(CC(F)(F)F)nnc12` [compound 54], 6.95; under `Clc1c(N2CCN(c3coc4ccccc34)CC2)ccn2c(CC3CC3)nnc12` [compound 157], 6.18. Under `Cc1cc(C2CCN(c3ccn4c(CC5CC5)nnc4c3C(F)(F)F)CC2)ccn1` [compound 199] stands 6.8. The same measure for `FC(F)(F)c1c(N2CC[C@H](Oc3ccccc3)C2)ccn2c(CC3CC3)nnc12` [compound 152]: 6.78.

Regarding `FC1(F)CCN(C2CCN(c3ccn4c(CC5CC5)nnc4c3Cl)CC2)CC1` [compound 242], the “GTPγS - hR2 PAM pEC50” value was 5.86. The same measure for `COc1cccc(F)c1C1CCN(c2ccn3c(CC(F)(F)F)nnc3c2Cl)CC1` [compound 65]: 8.41; for `CC1CN(c2ccn3c(CC4CC4)nnc3c2Cl)CCC1c1ccccc1` (single isomer, unassigned) [compound 208]: 7.06; for `FC(F)(F)c1c(N2CCC3(C=Cc4ccccc43)CC2)ccn2c(CC3CC3)nnc12` [compound 260]: 7.47. Under `FC(F)(F)Cc1nnc2c(Cl)c(N3CC4C(C3)C4c3ccccc3)ccn12` (racemic) [compound 81] stands 6.85; under `CC(C)OCc1nnc2c(C(F)(F)F)c(N3CCN(c4ccccc4)CC3)ccn12` [compound 155], 6.83‡; under `CCCc1nnc2c(Cl)c(N3CCC4(CC3)COc3ccccc34)ccn12` [compound 88], 6.18. Under `Fc1ccccc1NC1CCN(c2ccn3c(CC4CC4)nnc3c2Cl)CC1` [compound 176] stands 6.3; under `Cc1cccnc1OC1CCN(c2ccn3c(CC4CC4)nnc3c2C(F)(F)F)CC1` [compound 68], 7.55. As for `CCCc1nnc2c(Cl)c(N3CCC4(CC3)OC(C)(C)c3ccccc34)ccn12` [compound 107], the “GTPγS - hR2 PAM pEC50” value turned out to be 7.22. As for `FC(F)(F)c1c(N2CCC(c3ccccc3)(N3CCOCC3)CC2)ccn2c(CC3CC3)nnc12` [compound 62], the “GTPγS - hR2 PAM pEC50” value is 6.41. Under `Fc1ccc(C2CCN(c3ccn4c(CC5CC5)nnc4c3C(F)(F)F)CC2)c(F)c1` [compound 195] stands 7.98.

With `COc1cnc(N2CCN(c3ccn4c(CC5CC5)nnc4c3C(F)(F)F)CC2)nc1` [compound 90], the “GTPγS - hR2 PAM pEC50” value worked out at 6.61. Under `COc1cc(F)ccc1C1CCN(c2ccn3c(CC4CC4)nnc3c2C(F)(F)F)CC1` [compound 277] stands 7.72.
